Measured values as given in US20260250301A1, “KRAS G12D INHIBITORS AND USES THEREOF” (SUZHOU ZANRONG PHARMA LIMITED, priority 2023, published 2026).
pIC50: −log10 of the molar value.

Columns and labels:
[1] = In vivo oral bioavailability assay (mouse PK); conditions: Balb/c mice female, IV bolus 1 mg/kg
Procedure: In Vivo Oral Bioavailability Assay (Mouse PK):
Single dose following IV bolus (1 mg/kg, 0.2 mg/mL in 1% DMSO, 99% SBE-β-CD (10% w/v) in water) and oral gavage (10 mg/kg~60 mg/kg) administration of test compound in Balb/c Mice female. The blood samples were collected at 2 min, 5 min, 10 min, 30 min, 1 hr, 2 hr, 4 hr, 8 hr and 24 hr (additional 32 hr and 48 hr for MRTX1133) after IV bolus, at 15 min, 30 min, 1 hr, 1.5 hr, 2 hr, 3 hr, 4 hr, 8 hr and 24 hr (additional 32 hr and 48 hr for MRTX1133) after PO administration. The plasma concentrations of compounds were determined with UPLC-MS/MS.

[2] = system: PANC-1 pERK; experiment: Phospho-ERK 1/2 assay; format: cell-based; conditions: PANC-1 cells, compound incubation 3 hours, pERK normalised with GAPDH antibody staining
Procedure: Allow PNAC-1 cell growth in a T75 flask in DMEM and 10% 1 fetal calf serum (FCS; Gibco®), using standard tissue culture procedures until ~80% confluency is achieved. Day 1, seed 6000 cells/well in 384 well plate and incubate at 37° C., 5% CO2. Add diluted compound by Echo 550, final DMSO is 0.5%, incubate cells at 37° C., 5% CO2 for 3 hours. Then, remove medium and fix cells with 3.7% formaldehyde in PBS (PFA) by Apricot. Wash with PBS once. Permeabilize cells with cold 100% methanol and repeat wash once with PBS once. Add Li-Cor blocking buffer to each well and incubate 1.5 hours at RT. Remove blocking buffer and add primary antibody mixture (rabbit anti pERK, mouse anti GAPDH). Incubate at 4° C. overnight. Day 2, wash with PBST (Tween-20 in PBS) with total 3 times and then add secondary antibody mixture (goat anti rabbit 800CW (1:800 dilution in the combined solution) and goat anti mouse 680RD (1:800 dilution in the combined solution)), incubate for 60 minutes at RT away from light. Repeat washing with PBST 3 times. After final wash, centrifuge plate up-side-down at 1000 rpm to remove wash solution completely from wells. Before plate scanning, clean the bottom plate surface and the Odyssey© Imager scanning bed (if applicable) with moist, lint-free tissue to avoid any obstructions during scanning. Scan plate with detection in both 700 and 800 nm channels.

[3] = target: T1, P-glycoprotein (Pgp, MDR1) (Homo sapiens, UniProt P08183); experiment: MDCK-MDR1 Pgp assessment; format: in vitro ADME; conditions: dog, MDCK-MDR1 cells, read-out: Pgp Efflux Ratio (Pexact)
T1 construct: expressed in transfected cells; host or cells: MDCK-MDR1 cells
Procedure: Efflux transport mediated by P-glycoprotein (Pgp) was assessed by MDCK-MDR1 cells. The final concentrations of test compounds and control compound were at 1 μM. The multi-well insert plate was incubated at 37 ^9C for 2 hours. In order to reliably measure passive permeability coefficients, Pexact was reported, which automatically corrects for loss of compound.

T1 sequence (P08183 whole entry): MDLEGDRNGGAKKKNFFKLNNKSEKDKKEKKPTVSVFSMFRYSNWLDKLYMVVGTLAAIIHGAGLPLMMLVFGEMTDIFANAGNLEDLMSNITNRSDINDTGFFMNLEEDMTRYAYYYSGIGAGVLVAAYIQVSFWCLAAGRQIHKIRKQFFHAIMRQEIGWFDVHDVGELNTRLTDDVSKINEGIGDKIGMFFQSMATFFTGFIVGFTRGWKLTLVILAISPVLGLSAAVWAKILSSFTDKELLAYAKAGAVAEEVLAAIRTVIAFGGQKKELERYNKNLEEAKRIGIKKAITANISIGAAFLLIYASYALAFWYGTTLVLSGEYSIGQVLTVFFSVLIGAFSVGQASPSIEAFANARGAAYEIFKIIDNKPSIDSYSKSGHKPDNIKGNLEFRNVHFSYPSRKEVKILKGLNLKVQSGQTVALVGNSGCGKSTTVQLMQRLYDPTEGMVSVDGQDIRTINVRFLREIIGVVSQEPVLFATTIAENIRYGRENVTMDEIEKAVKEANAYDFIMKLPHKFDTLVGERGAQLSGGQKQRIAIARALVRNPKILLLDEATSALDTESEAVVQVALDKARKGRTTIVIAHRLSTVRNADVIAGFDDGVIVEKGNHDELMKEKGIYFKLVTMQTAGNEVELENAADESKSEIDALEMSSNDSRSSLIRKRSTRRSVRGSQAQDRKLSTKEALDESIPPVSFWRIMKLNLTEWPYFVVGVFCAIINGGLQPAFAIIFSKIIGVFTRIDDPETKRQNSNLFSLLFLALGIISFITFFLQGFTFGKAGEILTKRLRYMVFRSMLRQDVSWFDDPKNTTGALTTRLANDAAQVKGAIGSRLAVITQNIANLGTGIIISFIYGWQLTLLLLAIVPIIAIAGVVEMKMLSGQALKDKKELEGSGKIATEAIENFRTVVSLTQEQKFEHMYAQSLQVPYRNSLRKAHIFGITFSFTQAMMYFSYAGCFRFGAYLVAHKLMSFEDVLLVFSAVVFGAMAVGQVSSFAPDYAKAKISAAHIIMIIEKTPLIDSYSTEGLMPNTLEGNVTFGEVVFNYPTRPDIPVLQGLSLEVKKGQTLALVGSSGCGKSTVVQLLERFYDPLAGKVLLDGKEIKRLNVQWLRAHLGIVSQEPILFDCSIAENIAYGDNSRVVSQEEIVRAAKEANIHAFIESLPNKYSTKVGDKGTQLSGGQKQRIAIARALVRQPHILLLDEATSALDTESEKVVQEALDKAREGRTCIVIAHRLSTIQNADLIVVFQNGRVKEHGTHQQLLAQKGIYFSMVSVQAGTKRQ

Row | SMILES | pIC50 ([2]; Homo sapiens, PANC-1, 3 h) | pIC50 [2] | further results
1 | C#Cc1c(F)ccc2cccc(-c3nc4c5c(nc(=O)n(C[C@@]67CCCN6CC(=C)C7)c5c3F)N3C[C@H]5CC[C@H](N5)[C@H]3[C@H](C)O4)c12 (single isomer, unassigned) [Example 200a] | 7.92 | – | Fa*Fg (%) ([1]; oral dose 10 mpk): 24%; bioavailability ([1]; mouse, plasma, oral dose 10 mpk): 15.8%
2 | C#Cc1c(F)ccc2cccc(-c3nc4c5c(nc(=O)n(CC(C)(CO)N(C)C)c5c3F)N3C[C@H]5CC[C@H](N5)[C@H]3[C@H](C)O4)c12 (single isomer, unassigned) [Example 365a] | – | 8.22 | efflux ratio at 2 h, 1 μM [3]: 8.4
3 | C=C1CN2CCCC2(Cn2c(=O)nc3c4c(nc(-c5cc(O)cc6ccc(F)c(CC)c56)c(F)c42)O[C@@H](C)[C@@H]2[C@@H]4CC[C@H](CN32)N4)C1 (stereo partly drawn) [Example 228] | 7.72 | – | –
4 | CCc1c(F)ccc2cc(O)cc(-c3nc4c5c(nc(=O)n(C[C@H]6CCN6C)c5c3F)N3C[C@H]5CC[C@H](N5)[C@H]3[C@H](C)O4)c12 [Example 369, (8S,8aS,9S,12R)-5-(8-ethyl-7-fluoro-3-hydroxynaphthalen-1-yl)-4-fluoro-8-methyl-3-(((R)-1-methylazetidin-2-yl)methyl)-8a,9,10,11,12,13-hexahydro-8H-7-oxa-1,3,6,13a,14-pentaaza-9,12-methanonaphtho[1,8-ab]heptalen-2(3H)-one] | 6.40 | – | –
5 | C#Cc1c(F)ccc2cccc(-c3nc4c5c(nc(=O)n(C[C@]67CCCN6CC(=C)C7)c5c3F)N3C[C@H]5CC[C@H](N5)[C@H]3[C@H](C)O4)c12 (single isomer, unassigned) [Example 200b] | 6.16 | – | –
6 | C#Cc1c(F)ccc2cccc(-c3nc4c5c(nc(=O)n(C[C@H]6CCN6C)c5c3F)N3C[C@H]5CC[C@H](N5)[C@H]3[C@H](C)O4)c12 [Example 366, (8S,8aS,9S,12R)-5-(8-ethynyl-7-fluoronaphthalen-1-yl)-4-fluoro-8-methyl-3-(((R)-1-methylazetidin-2-yl)methyl)-8a,9,10,11,12,13-hexahydro-8H-7-oxa-1,3,6,13a,14-pentaaza-9,12-methanonaphtho[1,8-ab]heptalen-2(3H)-one] | 6.57 | – | –
7 | CCc1c(F)ccc2cc(O)cc(-c3nc4c5c(nc(=O)n(C[C@@]67CCCN6C[C@H](F)C7)c5c3F)N3C[C@H]5CC[C@H](N5)[C@H]3CO4)c12 [Example 45, (8aS,9S,12R)-5-(8-ethyl-7-fluoro-3-hydroxynaphthalen-1-yl)-4-fluoro-3-(((2R,7aS)-2-fluorotetrahydro-1H-pyrrolizin-7a(5H)-yl)methyl)-8a,9,10,11,12,13-hexahydro-8H-7-oxa-1,3,6,13a,14-pentaaza-9,12-methanonaphtho[1,8-ab]heptalen-2(3H)-one] | 7.64 | – | –
8 | C#Cc1c(F)ccc2cc(O)cc(-c3c(F)c4c5c(cc(=O)n(C[C@@]67CCCN6C[C@H](F)C7)c5c3F)N3C[C@H]5CC[C@H](N5)[C@H]3CO4)c12 [Example 332, (5aS,6S,9R)-2-(8-ethynyl-7-fluoro-3-hydroxynaphthalen-1-yl)-1,3-difluoro-14-(((2R,7aS)-2-fluorotetrahydro-1H-pyrrolizin-7a(5H)-yl)methyl)-5a,6,7,8,9,10-hexahydro-5H-6,9-epiminoazepino[2′,1′:3,4][1,4] oxazepino[5,6,7-de]quinolin-13(14H)-one] | 6.11 | – | –
9 | CCc1c(F)ccc2cc(O)cc(-c3nc4c5c(nc(=O)n(CC(C)(CO)N(C)C)c5c3F)N3C[C@H]5CC[C@H](N5)[C@H]3[C@H](C)O4)c12 (single isomer, unassigned) [Example 373a] | – | 8.19 | efflux ratio at 2 h, 1 μM [3]: 12.5
10 | C=C1CN2CCC[C@]2(Cn2c(=O)nc3c4c(nc(-c5cc(O)cc6ccc(F)c(CC)c56)c(F)c42)OC[C@@H]2[C@@H]4CC[C@H](CN32)N4)C1 (single isomer, unassigned) [Example 46b] | 7.55 | – | –
11 | CCc1c(F)ccc2cc(O)cc(-c3nc4c5c(nc(=O)n(CC(C)(CO)N(C)C)c5c3F)N3C[C@H]5CC[C@H](N5)[C@H]3[C@H](C)O4)c12 (single isomer, unassigned) [Example 373b] | – | 6.86 | –
12 | C#Cc1c(F)ccc2cccc(-c3nc4c5c(nc(=O)n(C6C7CC6CN(C)C7)c5c3F)N3C[C@H]5CC[C@H](N5)[C@H]3[C@H](C)O4)c12 (single isomer, unassigned) [Example 371a] | – | 6.52 | –
13 | C#Cc1c(F)ccc2cc(O)cc(-c3ncc4c(N5CC6CCC(C5)N6)nc(OC[C@@]56CCCN5C[C@H](F)C6)nc4c3F)c12 [MRTX1133, reference compound] | – | – | Fa*Fg (%) ([1]; oral dose 30 mpk): 0.95%
14 | CCc1c(F)ccc2cc(O)cc(-c3nc4c5c(nc(=O)n(C(C)[C@H]6CCN6C)c5c3F)N3C[C@H]5CC[C@H](N5)[C@H]3[C@H](C)O4)c12 (single isomer, unassigned) [Example 376b] | – | 6.88 | –
